Measured values as given in ChEMBL document CHEMBL5154729, “A fragment integrational approach to GPCR inhibition: Identification of a high affinity small molecule CXCR4 antagonist” (Eur J Med Chem, 2022).
Active and inactive are the calls of the source. The calls are words filed in the database; no cut-off is given here.

What was measured:
[1] = biological target: T1, C-X-C chemokine receptor type 4 (Homo sapiens, UniProt P61073); assay: Binding affinity to CXCR4 (unknown origin) expressed in CHO cells measured by Scatchard plot analysis; type: cell-based
[2] = biological target: T1, C-X-C chemokine receptor type 4; assay: Antagonist activity at CXCR4 receptor in human SUP-T1 assessed as inhibition of SDF-1alpha-induced CXCR4 internalization at 0.1 to 10 uM and measured by flow cytometry analysis; type: functional, cell-based; conditions: filed as antagonist, dose 0.1-10 µM, DDE = dose-dependent effect
[3] = test system: Human immunodeficiency virus 1; assay: Antiviral activity against HIV1 NL4-3 virus infected in human CEM-GFP cells assessed as reduction in CXCR4-mediated HIV-1 infection at 0.1 to 10000 nM measured by fluorescence assay; type: functional, organism-based; conditions: dose 0.1-10000 nM
CCRF-CEM = assay: Cytotoxicity against human CEM-GFP cells at 0.32 to 25000 nM measured by CellTiter-Blue cell viability assay; type: toxicity, cell-based; conditions: 25 µM, dose 0.32-25000 nM
[4] = test system: C-X-C chemokine receptor type 4 (Homo sapiens), P61073 [D262A]; assay: Binding affinity to CXCR4 D262A mutant (unknown origin) expressed in CHO cells at 100 nM measured by 12G5 competitive binding method; type: cell-based; conditions: filed as antagonist
[5] = biological target: T1, C-X-C chemokine receptor type 4; assay: Antagonist activity at CXCR4 receptor expressed in CHO cells transfected with CRE-luc2P assessed as reduction in forskolin-stimulated SDF-1alpha-mediated inhibition of cAMP production at 10 uM and measured by luciferase reporter gene assay; type: functional, cell-based; conditions: filed as antagonist
[6] = biological target: T1, C-X-C chemokine receptor type 4; assay: Antagonist activity at CXCR4 receptor in CHO cells expressing EGFP-CXCR4 assessed as inhibition of SDF-1alpha-induced CXCR4 internalization at 1 to 100 nM and measured by confocal microscopy; type: functional, cell-based; conditions: filed as antagonist, dose 1-100 nM
[7] = biological target: T1, C-X-C chemokine receptor type 4; assay: Antagonist activity at CXCR4 receptor expressed in CHO cells transfected with […] assessed as reduction in SDF-1alpha-mediated RhoA activation at 10 uM and measured by luciferase reporter gene assay; type: functional, cell-based; conditions: filed as antagonist
[8] = biological target: T1, C-X-C chemokine receptor type 4; assay: Binding affinity to CXCR4 (unknown origin) expressed in CHO cells measured by 12G5 competitive binding method; type: cell-based
[9] = biological target: T1, C-X-C chemokine receptor type 4; assay: Antagonist activity at CXCR4 receptor expressed in CHO cells transfected with SRE-luc2P assessed as reduction in SDF-1alpha-mediated ERK/MAPK activation at 10 uM and measured by luciferase reporter gene assay; type: functional, cell-based; conditions: filed as antagonist
SUP-T1 = assay: Cytotoxicity against human SUP-T1 cells at 10 to 50 uM after 72 hrs CellTiter-96 assay; type: toxicity, cell-based; conditions: sup-t1, 72 h, dose 10-50 µM
[10] = biological target: T1, C-X-C chemokine receptor type 4; assay: Antagonist activity at CXCR4 receptor expressed in CHO cells transfected with NFAT-RE-luc2P assessed as reduction in SDF-1alpha-mediated calcium signaling pathway at 10 uM and measured by luciferase reporter gene assay; type: functional, cell-based; conditions: filed as antagonist
[11] = test system: C-X-C chemokine receptor type 4 (Homo sapiens), P61073 [E288D]; assay: Binding affinity to CXCR4 E288D mutant (unknown origin) expressed in CHO cells at 100 nM measured by 12G5 competitive binding method; type: cell-based; conditions: filed as antagonist
CHO = assay: Binding affinity to CXCR4 D262E mutant (unknown origin) expressed in CHO cells at 100 nM measured by 12G5 competitive binding method; type: cell-based; conditions: Homo sapiens, filed as antagonist
[12] = test system: C-X-C chemokine receptor type 4 (Homo sapiens), P61073 [E288A]; assay: Binding affinity to CXCR4 E288A mutant (unknown origin) expressed in CHO cells at 100 nM measured by 12G5 competitive binding method; type: cell-based; conditions: filed as antagonist
[13] = biological target: T1, C-X-C chemokine receptor type 4; assay: Antagonist activity at CXCR4 receptor in SDF-1alpha-stimulated human SUP-T1 cells measured by calcium mobilization assay; type: functional, cell-based

T1 sequence (P61073 whole entry): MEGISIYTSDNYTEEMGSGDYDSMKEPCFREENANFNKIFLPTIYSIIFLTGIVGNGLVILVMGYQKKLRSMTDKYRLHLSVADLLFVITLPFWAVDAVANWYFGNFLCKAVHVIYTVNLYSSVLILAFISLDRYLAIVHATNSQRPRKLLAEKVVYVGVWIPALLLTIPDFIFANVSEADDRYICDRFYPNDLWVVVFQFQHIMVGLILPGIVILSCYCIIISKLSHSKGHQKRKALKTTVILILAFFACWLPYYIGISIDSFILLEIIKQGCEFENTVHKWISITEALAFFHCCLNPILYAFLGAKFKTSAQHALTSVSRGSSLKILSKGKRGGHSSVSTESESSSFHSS
C-X-C chemokine receptor type 4 (Homo sapiens), P61073 [D262A], sequence (P61073 whole entry D262A): as the sequence (P61073 whole entry) above, with D262A counted along it
C-X-C chemokine receptor type 4 (Homo sapiens), P61073 [E288D], sequence (P61073 whole entry E288D): as the sequence (P61073 whole entry) above, with E288D counted along it
C-X-C chemokine receptor type 4 (Homo sapiens), P61073 [E288A], sequence (P61073 whole entry E288A): as the sequence (P61073 whole entry) above, with E288A counted along it

Row | SMILES | Kd [1] | inhibition [2] | Activity [3] | Activity (CCRF-CEM) | Activity [4] | Activity [5] | inhibition [6] | Activity [7] | IC50 [8] | Activity [9] | Activity (SUP-T1) | Activity [10] | Activity [11] | Activity (CHO) | Activity [12] | IC50 [13]
1 | N/C(=N\C(=O)CCCCCNC(=S)Nc1ccc2c(c1)C(=O)OC21c2ccc(O)cc2Oc2cc(O)ccc21)NCCC[C@H](NCc1ccccn1)C(=O)NCc1ccc(CNCCCNC2CCCCC2)cc1 | 33 nM | – | – | – | – | – | – | – | – | – | – | – | – | – | – | –
2 | c1cc(CN2CCCNCCNCCCNCC2)ccc1CN1CCCNCCNCCCNCC1 | – | Dde | – | – | – | – | – | – | – | – | – | – | – | – | – | –
3 | N=C(N)NCCC[C@H](NCc1ccccn1)C(=O)NCc1ccc(CNCCCNC2CCCCC2)cc1 | – | Dde | Active | Non-Toxic | > 40% | Active | Active | Active | 12 nM | Active | Non-Toxic | Active | > 60% | > 60% | > 90% | 1.6 nM
